# Experimental data as given in patent US20080045504A1, “Benzonitrile Derivatives to Treat Musculoskeletal Frailty” (PFIZER PRODUCTS INC., priority 2004, published 2008).
# Marks after values point to notes of the source that are not given here.
# Experiments:
# [1] = test system: aged ovariectomized (OVX) female rat; experiment: Effect on body weight, body composition and bone density in the aged ovariectomized female rat; assay type: in vivo, Sprague-Dawley rat; conditions: OVX rats
# Procedure: Effect of Selective Androgen Receptor Modulator on Body Weight. Body Composition and Bone Density in the Aged Intact and Ovariectomized Female Rat The purpose of this study is to test the effects of test compound in aged intact or ovariectomized (OVX) female rat model.
# Sprague-Dawley female rats were sham-operated or OVX at 18 months of age, while a group of rats was necropsied at day 0 to serve as baseline controls. One day post-surgery, the rats were treated with either vehicle or test compound. The vehicle or test compound was administered twice a week (Tuesday and Friday) by subcutaneous injection (s.c.), with the test compound being administered at an average dose of 10 milligrams per kilogram of body weight per day (10 mg/kg/day).
# All rats were given s.c. injection of 10 mg/kg of calcein (Sigma, St. Louis, Mo.) for fluorescent bone label 2 and 12 days before necropsy. On the day of necropsy, all rats under ketamine/xylazine anesthesia were weighed and underwent dual-energy X-ray absorptiometry (DXA, QDR-4500/W, Hologic Inc., Waltham, Mass.) equipped with Rat Whole Body Scan software for lean and fat body mass determination. The rats were necropsied, then autopsied and blood was obtained by cardiac puncture. The distal femoral metaphysis and femoral shafts from each rat were analyzed by peripheral quantitative computerized tomography (pQCT), and volumetric total, trabecular and cortical bone mineral content and density were determined.
# Peripheral Quantitative Computerized Tomography (pQCT) Analysis: Excised femurs were scanned by a pQCT X-ray machine (Stratec XCT Research M, Norland Medical Systems, Fort Atkinson, Wis.) with software version 5.40. A 1 millimeter (mm) thick cross section of the femur metaphysis was taken at 5.0 mm ([…], a primary cancellous bone site) and 13 mm (femoral shafts, a cortical bone site) proximal from the distal end with a voxel size of 0.10 mm. Cortical bone was defined and analyzed using contour mode 2 and cortical mode 4. An outer threshold setting of 340 mg/cm^3 was used to distinguish the cortical shell from soft tissue and an inner threshold of 529 mg/cm^3 to distinguish cortical bone along the endocortical surface. Trabecular bone was determined using peel mode 4 with a threshold of 655 mg/cm^3 to distinguish (sub)cortical from cancellous bone. An additional concentric peel of 1% of the defined cancellous bone was used to ensure that (sub)cortical bone was eliminated from the analysis. Volumetric content, density, and area were determined for both trabecular and cortical bone (Jamsa T. et al., Bone 23:155-161, 1998; Ke, H. Z. et al., Journal of Bone and Mineral Research, 16:765-773, 2001). Using the above setting, it was determined that the ex vivo precision of volumetric content, density and area of total bone, trabecular, and cortical regions ranged from 0.99% to 3.49% with repositioning.
# The preceding protocol was carried out using the compound of Example 1 as the test compound. The vehicle employed in experimental groups II-IV was 100% sesame oil. The rats in groups II-IV were dosed s.c. twice a week (on Tuesday and Friday) with 0.3 ml and 0.4 ml. This dosing provided an average daily dose of 10 mg/kg/day of the compound of Example 1 for experimental group IV.
# The values provided in Table 3 are the mean values±the standard error measurement. In Table 3 and the experimental protocol the following abbreviations or symbols had the following definitions. DFM: distal femoral metaphysis; FS: femoral shafts; g: grams; mg/cm^3: milligrams per cubic centimeter; mg/mm: milligrams per millimeter; a: p<0.05 vs. Baseline; b: p<0.05 vs. Sham; c: p<0.05 vs. OVX; mg/kg/day: milligrams per kilogram of body weight per day; and ml: milliliter.
# [2] = test system: orchiectomized (ORX) immature male rat; experiment: Orchiectomized immature rat assay (levator ani and ventral prostate weights); assay type: in vivo, Sprague Dawley rat; conditions: 4 days, TP 10 mg/kg = 100%, ORX control = 0%; for % TP Control LA: levator ani weight; for % TP Control VP: ventral prostate weight
# Procedure: All animal studies were performed in accordance with the Guide for Care and Use of Laboratory Animals (National Research Council, 1996). Twenty-one day old male Sprague Dawley rats were acquired from Taconic, Inc, Germantown, N.Y. Rats were housed five per cage at standard vivarium conditions ([…], 12-h light/dark cycle), with normal chow diet and tap water ad libitum. At 25 days of age, the rats underwent bilateral orchiectomy surgery (ORX) after sedation with 3-5% Isoflurane. Following the surgery, the animals were treated immediately by daily subcutaneous (s.c.) injection with vehicle (sesame oil), testosterone propionate (TP, 10 mg/kg) and test compounds. The dosage of test compound administered is in mg/kg. At the end of the 4 days of administrations, the animals were sacrificed in a carbon dioxide chamber, the ventral prostate (VP) and levator ani muscle complex (LA) were removed and weighed. The increase in the weights of VP or LA by TP was expressed as 100%, and the ORX control as baseline, 0%; the response of the test compounds was calculated as the percentage increase compared to TP.
# [3] = test system: aged intact or orchidectomized (ORX) male rat; experiment: Effect on body weight, body composition and bone density in the aged intact and orchidectomized male rat; assay type: in vivo, SD rat
# Procedure: The purpose of this study is to test the effects of test compound in aged intact or orchidectomized (ORX) male rat model.
# Male SD rats at 11 months of age were sham-operated or ORX. One day post-surgery they were treated with test compound by subcutaneous injections (s.c.) at the average dose of 3 or 10 mg/kg per day for 8 weeks. The subcutaneous injections were given 2 times (Tuesday and Friday) per week with the first injection (Tuesday) at 9 or 30 mg/kg (in sesame oil, total 0.3 ml), and the second injection (Friday) at 12 or 40 mg/kg (in sesame oil, total 0.4 ml). All rats were injected subcutaneously with calcein at 10 mg/kg on 12 and 2 days before necropsy.
# [4] = 10 mg/kg/day s.c. twice a week, DXA, mean ± SEM
# [5] = 10 mg/kg/day s.c., distal femoral metaphysis, pQCT, mean ± SEM
# [6] = 10 mg/kg/day s.c., femoral shafts, pQCT, mean ± SEM
# [7] = 10 mg/kg/day, compared to OVX rats administered vehicle
# [8] = Group II (sham, 3 mg/kg/d) compared to Group I (sham + vehicle)
# [9] = sham and ORX rats, 3 or 10 mg/kg/d s.c. for 8 weeks
# [10] = sham and ORX rats, 3 or 10 mg/kg/d s.c. for 8 weeks, dose dependant, except Group II
structure (smiles),measurement,setting,value
"CC[C@H]1CCCCN1c1ccc(C#N)c(C(F)(F)F)c1 [Example 1, 4-(2-(S)-Ethyl-piperidin-1-yl)-2-trifluoromethyl-benzonitrile]",Body Weight,"[1]; 10 mg/kg/day s.c. twice a week in sesame oil, mean ± SEM","459 ± 10.7^b,c g"
same,Fat Body Mass,[1]; [4],121.7 ± 7.9^c g
same,lean body mass,[1]; [4],319.0 ± 7.7^c g
same,Total Density of DFM,[1]; [5],602.2 ± 12.3^b mg/cm^3
same,Trabecular Density of DFM,[1]; [5],310.4 ± 0.16 mg/mL
same,Cortical Content of FS,[1]; [6],11.8 ± 0.15^c mg/mm
same,Total Content of FS,[1]; [6],11.9 ± 0.16^c mg/mm
same,effect on body weight,[1]; [7],negligible effect
same,effect on fat body mass,[1]; [7],significantly decreased
same,effect on lean body mass,[1]; [7],significantly increased
same,% TP Control LA,[2]; 3 mg/kg s.c.,53%
same,% TP Control LA,[2]; 10 mg/kg s.c.,93%
same,% TP Control LA,[2]; 30 mg/kg s.c.,100%
same,% TP Control VP,[2]; 3 mg/kg s.c.,11%
same,% TP Control VP,[2]; 10 mg/kg s.c.,30%
same,% TP Control VP,[2]; 30 mg/kg s.c.,33%
same,fat body mass,[3]; [8],slight increase
same,lean body mass,[3]; [8],slight decrease
same,prostate weight,[3]; Group II sham rats (3 mg/kg/d),did not increase
same,prostate weight,"[3]; Group III (sham, 10 mg/kg/d) compared to Group I",slight increase
same,prostate weight,"[3]; ORX rats, 3 or 10 mg/kg/d, dose dependent",increased prostate weight in ORX rats to the level of sham controls
same,levitor anni weight,[3]; [9],increased
same,total density in the femoral shaft (FS),[3]; [9],increased
same,trabecular density in the distal femoral metaphysis (DFM),[3]; [9],increased
same,fat body mass,[3]; [10],decreased
same,lean body mass,[3]; [10],increased
